Results from article PMC8568133, “Evaluation of bisphenylthiazoles as a promising class for combating multidrug-resistant fungal infections” (PLoS ONE, 2021).
Converted amounts (≈) assume the structure as drawn. Where two headings read alike, the source gives them in different places.

Tests used:
Candida auris = assay: Checkerboard assay of compound 17 with standard antifungals; format: cell-based; conditions: for FICI (fractional inhibitory concentration index) / Interpretation of interaction: antifungal combined with compound 17; for MIC Combined, Antifungal: antifungal in combination with compound 17; for MIC: Candidozyma auris, checkerboard, agent alone
Procedure: To evaluate the interactions between bisphenylthiazoles and the standard antifungal agents (fluconazole, amphotericin B, 5-fluorocytosine and caspofungin) against 2 C. auris clinical isolates, a standard checkerboard assay was utilized as described in previous studies. The fractional inhibitory concentration index (FICI) was calculated for each interaction. Interactions where the FICI was ≤0.5 were categorized as synergistic (SYN). FICI values of >0.5–1.25 were categorized as additive (ADD). FICI values of >1.25–4 were categorized as indifferent, and FICI values of > 4 were categorized as antagonistic. The experiment was repeated three independent times.

Candida albicans = assay: Antifungal broth microdilution MIC (50% growth inhibition) and MFC; format: cell-based
Procedure: (§1) Serial dilutions (from 128 μg/mL to 0.06 μg/mL) of the tested compounds and control drugs (fluconazole, itraconazole and amphotericin) (in triplicates), were screened against clinical isolates of Candida albicans, Candida auris, Candida glabrata, Candida parapsilosis, Candida tropicalis, Candida krusei, Cryptococcus neoformans, Cryptococcus gattii and Aspergillus fumigatus species using the broth microdilution method according to the Clinical and Laboratory Standards Institute guidelines. MICs were determined as the lowest concentration of the compounds that inhibited the fungal growth by 50% after incubation at 35 °C for 24 h (for Candida and Aspergillus), or 48 h (for Cryptococcus). The minimum fungicidal concentration (MFC) of these compounds was tested by plating 4 μL from wells with no growth onto YPD agar plates. The plates were incubated at 37 °C for 24 hours before recording the MFC, which was categorized as the lowest concentration that reduced fungal growth by 99.9% [45]. The experiment was repeated three independent times.

Candida krusei = assay: as above; format: cell-based; conditions: Pichia kudriavzevii, read-out: MIC
Procedure: as §1

Candida tropicalis = assay: as above; format: cell-based; conditions: Candida tropicalis, ATCC1369
Procedure: as §1

Candida glabrata = assay: as above; format: cell-based; conditions: Nakaseomyces glabratus
Procedure: as §1

Candida parapsilosis = assay: Antifungal broth microdilution MIC (50% growth inhibition); format: cell-based; conditions: Lodderomyces parapsilosis, read-out: MIC
Procedure: as §1

[1] = test system: E. coli JW55031 (tolC-mutant); assay: microbe, parasite or virus in culture; format: cell-based, Escherichia coli
Procedure: (§2) The minimum inhibitory concentrations (MICs) of the tested compounds and control drugs against clinically-relevant bacterial strains were determined using the broth microdilution method, according to guidelines outlined by the Clinical and Laboratory Standards Institute (CLSI), or as described previously.
(§3) Initial screening of the bisphenylthiazoles against Gram-positive and Gram-negative bacteria. Bacterial strains, (except C. difficile that was grown anaerobically on brain heart infusion supplemented agar at 37° C for 48 hours), were grown aerobically overnight on tryptone soy agar plates at 37° C. Afterwards, a bacterial solution equivalent to 0.5 McFarland standard was prepared and diluted in cation-adjusted Mueller-Hinton broth (CAMHB) (for S. aureus, and E. coli) to achieve a bacterial concentration of about 5 × 10^5 CFU/mL. C. difficile was diluted in brain heart infusion supplemented broth, supplemented with yeast extract, hemin and vitamin K to achieve a bacterial concentration of about 5 × 10^5 CFU/mL. Compounds and control drugs were added in the first row of the 96 -well plates, and serially diluted with the corresponding media containing bacteria. Plates were then, incubated aerobi cally at 37° C for 18-20 hours (for S. aureus and E. coli). C. difficile was incubated anaerobically at 37° C for 48 hours. […]
(§4) the visual growth of bacteria.

MRSA USA300 = assay: Broth microdilution MIC, initial antibacterial screening; format: cell-based, S. aureus
Procedure: as §2, §3, §4

[2] = test system: C. difficile ATCC BAA1870; assay: Broth microdilution MIC, initial antibacterial screening (anaerobic); format: cell-based, Clostridioides difficile
Procedure: as §2, §3, §4

[3] = test system: E. coli BW25113 (wild-type); assay: Broth microdilution MIC, initial antibacterial screening; format: cell-based, Escherichia coli
Procedure: as §2, §3, §4

Aspergillus fumigatus = assay: Antifungal broth microdilution MIC (50% growth inhibition); format: cell-based; conditions: Aspergillus fumigatus, read-out: MIC
Procedure: as §1

[4] = Candida auris 381 (azole-sensitive)
[5] = Candida auris 385 (azole-resistant)
[6] = Candida albicans, C. albicans SS5314 (wild-type), read-out: MIC
[7] = Staphylococcus aureus, MRSA USA300, read-out: MIC
[8] = Clostridioides difficile, ATCCBAA1870, read-out: MIC
[9] = Escherichia coli, read-out: MIC

Nc1nc(=O)[nH]cc1F [5-Fluorocytosine]
FICI (fractional inhibitory concentration index) (Candida auris; [4]): 1.250
Interpretation of interaction (Candida auris; [4]): ADD (FICI values of >0.5–1.25 were categorized as additive (ADD))
MIC Combined, Antifungal (Candida auris; [4]): 0.125 µg/mL
FICI (fractional inhibitory concentration index) (Candida auris; [5]): 1.125
Interpretation of interaction (Candida auris; [5]): ADD (FICI values of >0.5–1.25 were categorized as additive (ADD))
MIC Combined, Antifungal (Candida auris; [5]): 0.25 µg/mL
MIC (Candida auris; [4]): 0.125 µg/mL
MIC (Candida auris; [5]): 0.25 µg/mL

CC[C@H](C)C[C@H](C)CCCCCCCCC(=O)N[C@H]1C[C@@H](O)[C@@H](NCCN)NC(=O)[C@@H]2[C@@H](O)CCN2C(=O)[C@H]([C@H](O)CCN)NC(=O)[C@H]([C@H](O)[C@@H](O)c2ccc(O)cc2)NC(=O)[C@@H]2C[C@@H](O)CN2C(=O)[C@H]([C@@H](C)O)NC1=O [Caspofungin]
MIC (Candida albicans; Candida albicans, ATCC10231): 0.125 µg/mL (≈ 0.114 µM)
MIC (Candida albicans; Candida albicans, C. albicans NR-29448 (fluconazole-resistant), read-out: MIC): 0.25 µg/mL (≈ 0.229 µM)
MIC (Candida krusei; ATCC34135, C. krusei ATCC 34135): 0.5 µg/mL (≈ 0.457 µM)
MIC (Candida krusei; C. krusei CAB 396420): 0.5 µg/mL (≈ 0.457 µM)
MIC (Candida tropicalis): 0.125 µg/mL (≈ 0.114 µM)
MIC (Candida glabrata): 0.125 µg/mL (≈ 0.114 µM)
MIC (Candida glabrata; ATCC66032, C. glabrata ATCC 66032, read-out: MIC): 0.25 µg/mL (≈ 0.229 µM)
FICI (fractional inhibitory concentration index) (Candida auris; [4]): 1.250
Interpretation of interaction (Candida auris; [4]): ADD (FICI values of >0.5–1.25 were categorized as additive (ADD))
MIC Combined, Antifungal (Candida auris; [4]): 0.5 µg/mL
FICI (fractional inhibitory concentration index) (Candida auris; [5]): 1.125
Interpretation of interaction (Candida auris; [5]): ADD (FICI values of >0.5–1.25 were categorized as additive (ADD))
MIC Combined, Antifungal (Candida auris; [5]): 0.063 µg/mL
MIC (Candida auris; [4]): 0.5 µg/mL
MIC (Candida auris; [5]): 0.063 µg/mL
MIC (Candida parapsilosis; ATCC22019, C. parapsilosis ATCC 22019): 0.5 µg/mL (≈ 0.457 µM)
MIC (Candida parapsilosis; C. parapsilosis CAB 502638): 0.5 µg/mL (≈ 0.457 µM)

Cc1nc(-c2ccc(-c3ccccc3)cc2)sc1-c1nnc(NCCN(C)C)o1 [Compound 8, N-{5-[2-((1,1’-Biphenyl)-4-yl)-4-methylthiazol-5-yl]-1,3,4-oxadiazol-2-yl}-N,N-dimethylethane-1,2-diamine]
MIC (Candida albicans; C. albicans SS5314 (wild-type)): 16 µg/mL (≈ 39.5 µM)
MIC ([1]; E. coli JW55031 (tolC-mutant)): 16 µg/mL (≈ 39.5 µM)
MIC (MRSA USA300; MRSA USA300): 32 µg/mL (≈ 78.9 µM)
MIC [2]: 16 µg/mL (≈ 39.5 µM)
MIC [3]: 64 µg/mL (≈ 158 µM)

Cc1nc(-c2ccc(-c3ccccc3)cc2)sc1-c1nnc(NCC(=N)N)o1 [Compound 9, 2-{[5-(2-((1,1’-biphenyl)-4-yl)-4-methylthiazol-5-yl)-1,3,4-oxadiazol-2-yl]amino} acetimidamide]
MIC (Candida albicans; C. albicans SS5314 (wild-type)): >64 µg/mL
MIC ([1]; E. coli JW55031 (tolC-mutant)): >64 µg/mL
MIC (MRSA USA300; MRSA USA300): >64 µg/mL
MIC [2]: >64 µg/mL
MIC [3]: >64 µg/mL

Cc1nc(-c2ccc(-c3ccccc3)cc2)sc1-c1nnc(NC2CCNC2)o1 (stereo not shown) [Compound 10, 5-{2-[(1,1’-Biphenyl)-4-yl]-4-methylthiazol-5-yl}-N-(pyrrolidin-3-yl)-1,3,4-oxadiazol-2-amine]
MIC (Candida albicans; [6]): 8 µg/mL (≈ 19.8 µM)
MIC ([1]; Escherichia coli): > 64 µg/mL
MIC (MRSA USA300; [7]): > 64 µg/mL
MIC [2, 8]: 32 µg/mL (≈ 79.3 µM)
melting point: 116 to 117 °C
MIC [3, 9]: > 64 µg/mL

Cc1nc(-c2ccc(-c3ccccc3)cc2)sc1-c1nnc(N2CC[C@@H](N(C)C)C2)o1 [Compound 11, (R)-1-{5-[2-((1,1’-biphenyl)-4-yl)-4-methylthiazol-5-yl]-1,3,4-oxadiazol-2-yl}-N,N-dimethylpyrrolidin-3-amine]
MIC (Candida albicans; [6]): > 64 µg/mL
MIC ([1]; Escherichia coli): > 64 µg/mL
MIC (MRSA USA300; [7]): > 64 µg/mL
MIC [2, 8]: > 64 µg/mL
melting point: 165 to 167 °C
MIC [3, 9]: > 64 µg/mL

Cc1nc(-c2ccc(-c3ccccc3)cc2)sc1-c1nnc(N2CCC[C@H]2C(N)=O)o1 [Compound 13, (S)-1-{5-[2-((1,1’-biphenyl)-4-yl)-4-methylthiazol-5-yl]-1,3,4-oxadiazol-2-yl}pyro-lidine-2-carboxamide]
MIC (Candida albicans; C. albicans SS5314 (wild-type)): >64 µg/mL
MIC ([1]; E. coli JW55031 (tolC-mutant)): >64 µg/mL
MIC (MRSA USA300; MRSA USA300): >64 µg/mL
MIC [2]: >64 µg/mL
MIC [3]: >64 µg/mL

Cc1nc(-c2ccc(-c3ccccc3)cc2)sc1-c1nnc(N2CCC[C@@H]2C(N)=O)o1 [Compound 14, (R)-1-{5-[2-((1,1’-biphenyl)-4-yl)-4-methylthiazol-5-yl]-1,3,4-oxadiazol-2-yl}pyro-lidine-2-carboxamide]
MIC (Candida albicans; C. albicans SS5314 (wild-type)): >64 µg/mL
MIC ([1]; E. coli JW55031 (tolC-mutant)): >64 µg/mL
MIC (MRSA USA300; MRSA USA300): >64 µg/mL
MIC [2]: 64 µg/mL (≈ 148 µM)
MIC [3]: >64 µg/mL

Cc1nc(-c2ccc(-c3ccccc3)cc2)sc1-c1nnc(N2CCC[C@H]2CO)o1 [Compound 20, (S)-{1-[5-(2-((1,1’-Biphenyl)-4-yl)-4-methylthiazol-5-yl)-1,3,4-oxadiazol-2-yl]pyro-lidin-2-yl}methanol]
MIC (Candida albicans; C. albicans SS5314 (wild-type)): >64 µg/mL
MIC ([1]; E. coli JW55031 (tolC-mutant)): >64 µg/mL
MIC (MRSA USA300; MRSA USA300): >64 µg/mL
MIC [2]: 64 µg/mL (≈ 153 µM)
MIC [3]: >64 µg/mL

Cc1nc(-c2ccc(-c3ccccc3)cc2)sc1-c1nnc(N2CCC[C@@H]2CO)o1 [Compound 21, (R)-{1-[5-(2-((1,1’-Biphenyl)-4-yl)-4-methylthiazol-5-yl)-1,3,4-oxadiazol-2-yl]pyro-lidin-2-yl}tmethanol]
MIC (Candida albicans; C. albicans SS5314 (wild-type)): >64 µg/mL
MIC ([1]; E. coli JW55031 (tolC-mutant)): >64 µg/mL
MIC (MRSA USA300; MRSA USA300): >64 µg/mL
MIC [2]: >64 µg/mL
MIC [3]: >64 µg/mL

CNC(C)C1CCC(N)C(OC2C(N)CC(N)C(OC3OCC(C)(O)C(NC)C3O)C2O)O1 (stereo not shown) [Gentamicin, reference compound]
MIC ([1]; Escherichia coli): ≤ 0.5 µg/mL
MIC [3, 9]: ≤ 0.5 µg/mL

CCC(C)n1ncn(-c2ccc(N3CCN(c4ccc(OCC5COC(Cn6cncn6)(c6ccc(Cl)cc6Cl)O5)cc4)CC3)cc2)c1=O (stereo not shown) [Itraconazole, reference compound]
MIC (Aspergillus fumigatus; A. fumigatus NR 35303): 1 µg/mL (≈ 1.42 µM)
MIC (Aspergillus fumigatus; A. fumigatus NR 35304): 1 µg/mL (≈ 1.42 µM)

CC(=O)NC[C@H]1CN(c2ccc(N3CCOCC3)c(F)c2)C(=O)O1 [Linezolid, reference compound]
MIC ([1]; Escherichia coli): 8 µg/mL (≈ 23.7 µM)
MIC (MRSA USA300; [7]): 1 µg/mL (≈ 2.96 µM)
MIC [2, 8]: 1 µg/mL (≈ 2.96 µM)
MIC [3, 9]: > 64 µg/mL

CN[C@H](CC(C)C)C(=O)N[C@H]1C(=O)N[C@@H](CC(N)=O)C(=O)N[C@H]2C(=O)N[C@H]3C(=O)N[C@H](C(=O)N[C@H](C(=O)O)c4cc(O)cc(O)c4-c4cc3ccc4O)[C@H](O)c3ccc(c(Cl)c3)Oc3cc2cc(c3O[C@@H]2O[C@H](CO)[C@@H](O)[C@H](O)[C@H]2O[C@H]2C[C@](C)(N)[C@H](O)[C@H](C)O2)Oc2ccc(cc2Cl)[C@H]1O [Vancomycin, reference compound]
MIC (MRSA USA300; Staphylococcus aureus): 1 µg/mL (≈ 0.69 µM)
